Reference: patent publication US20150105252A1, “SUBSTITUTED PYRAZOLES AS HERBICIDES” (E I DU PONT DE NEMOURS AND COMPANY, priority 2013, published 2015)

Experiments:
[1] = system: crabgrass, large; assay: Test A preemergence; assay type: in vivo, Digitaria sanguinalis; settings: preemergence
Summary of the method: (§1)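 Scoring was visual, on a scale where 100 means complete control and 0 means no effect, comparing treated with untreated plants around 10 days post-application. Compounds in surfactant-containing non-phytotoxic solvent were sprayed onto soil preemergence or onto one- to two-leaf seedlings (2–10 cm) postemergence.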

[2] = system: ducksalad; assay: Test B flood; assay type: in vivo, Heteranthera limosa; settings: 250 g ai/ha, visual rating on 0 to 100 scale (0 no effect, 100 complete control), 13 to 15 days
Summary of the method: (§2)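 Visual ratings (0 = no effect, 100 = complete control) versus untreated controls were taken 13–15 days after treatment of greenhouse plants. Treatment was added to paddy water held at 3 cm depth on 2-leaf-stage seedlings.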

[3] = system: pigweed; assay: Test A postemergence; assay type: in vivo, Amaranthus retroflexus
Summary of the method: as §1

[4] = system: pigweed; assay: Test A preemergence; assay type: in vivo, Amaranthus retroflexus; settings: preemergence
Summary of the method: as §1

[5] = system: ducksalad; assay: Test C flooded paddy test; assay type: in vivo, Heteranthera limosa; settings: Flood
Summary of the method: (§3)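 Flooded 3 cm over soil; compound into paddy water; depth kept constant. Greenhouse 13–15 d.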

[6] = system: sedge, umbrella; assay: Test B flood; assay type: in vivo, Cyperus difformis; settings: 250 g ai/ha, visual rating on 0 to 100 scale (0 no effect, 100 complete control), 13 to 15 days
Summary of the method: as §2

[7] = system: velvetleaf; assay: Test A postemergence; assay type: in vivo, Abutilon theophrasti
Summary of the method: as §1

[8] = system: foxtail, giant; assay: Test A preemergence; assay type: in vivo, Setaria faberii; settings: preemergence
Summary of the method: as §1

[9] = system: sedge, umbrella; assay: Test C flooded paddy test; assay type: in vivo, Cyperus difformis; settings: Flood
Summary of the method: as §3

[10] = system: barnyardgrass; assay: Test B flood; assay type: in vivo, Echinochloa crus-galli; settings: 250 g ai/ha, visual rating on 0 to 100 scale (0 no effect, 100 complete control), 13 to 15 days
Summary of the method: as §2

[11] = system: rice; assay: Test B flood; assay type: in vivo, Oryza sativa; settings: 250 g ai/ha, visual rating on 0 to 100 scale (0 no effect, 100 complete control), 13 to 15 days
Summary of the method: as §2

[12] = system: rice; assay: Test C flooded paddy test; assay type: in vivo, Oryza sativa; settings: Flood
Summary of the method: as §3

[13] = system: morningglory; assay: Test A postemergence; assay type: in vivo, Ipomoea spp.
Summary of the method: as §1

[14] = system: crabgrass, large; assay: Test A postemergence; assay type: in vivo, Digitaria sanguinalis
Summary of the method: as §1

[15] = system: wheat; assay: Test A preemergence; assay type: in vivo, Triticum aestivum; settings: preemergence
Summary of the method: as §1

[16] = system: foxtail, giant; assay: Test A postemergence; assay type: in vivo, Setaria faberii
Summary of the method: as §1

[17] = system: wheat; assay: Test A postemergence; assay type: in vivo, Triticum aestivum
Summary of the method: as §1

[18] = system: barnyardgrass; assay: Test A preemergence; assay type: in vivo, Echinochloa crus-galli; settings: preemergence
Summary of the method: as §1

[19] = system: barnyardgrass; assay: Test A postemergence; assay type: in vivo, Echinochloa crus-galli
Summary of the method: as §1

[20] = system: corn; assay: Test A preemergence; assay type: in vivo, Zea mays; settings: preemergence
Summary of the method: as §1

[21] = system: velvetleaf; assay: Test A preemergence; assay type: in vivo, Abutilon theophrasti; settings: preemergence
Summary of the method: as §1

[22] = system: barnyardgrass; assay: Test C flooded paddy test; assay type: in vivo, Echinochloa crus-galli; settings: Flood
Summary of the method: as §3

[23] = system: morningglory; assay: Test A preemergence; assay type: in vivo, Ipomoea spp.; settings: preemergence
Summary of the method: as §1

[24] = system: corn; assay: Test A postemergence; assay type: in vivo, Zea mays
Summary of the method: as §1

[25] = 125 g ai/ha, visual injury approx. 10 days after treatment
[26] = 500 g ai/ha, visual injury after approx. 10 days, 0 to 100 scale (0 no effect, 100 complete control)
[27] = Postemergence, 500 g ai/ha, 0 to 100 scale (0 no effect, 100 complete control)
[28] = postemergence, 125 g ai/ha, about 10 days, visual rating on 0 to 100 scale (0 no effect, 100 complete control)
[29] = 31 g ai/ha, scale 0 to 100 (0 no effect, 100 complete control)
[30] = 62 g ai/ha, scale 0 to 100 (0 no effect, 100 complete control)

Compound: CCc1cc(C(=O)NC(C)C)nn1Cc1ccnc(OCC(F)(F)F)c1 [Compound 149]
- Crabgrass, Large plant response rating (0 to 100 scale) [1, 25]: 100
- Crabgrass, Large plant response rating [1, 26]: 100
- Plant response rating, Ducksalad [2]: 95
- Pigweed plant response rating [3, 27]: 100
- Pigweed plant response rating [3, 28]: 90
- Pigweed plant response rating (0 to 100 scale) [4, 25]: 80
- Pigweed plant response rating [4, 26]: 100
- Plant response rating, Ducksalad [5, 29]: 0
- Plant response rating, Ducksalad [5, 30]: 55
- Plant response rating, Ducksalad ([5]; 125 g ai/ha, scale 0 to 100): 70
- Plant response rating, Sedge, Umbrella [6]: 95
- Velvetleaf plant response rating [7, 27]: 90
- Velvetleaf plant response rating [7, 28]: 30
- Foxtail, Giant plant response rating (0 to 100 scale) [8, 25]: 70
- Foxtail, Giant plant response rating [8, 26]: 100
- Plant response rating, Sedge, Umbrella [9, 29]: 60
- Plant response rating, Sedge, Umbrella [9, 30]: 70
- Plant response rating, Sedge, Umbrella ([9]; 125 g ai/ha, scale 0 to 100): 80
- Plant response rating, Barnyardgrass [10]: 30
- Plant response rating, Rice [11]: 10
- Plant response rating, Rice [12, 29]: 0
- Plant response rating, Rice [12, 30]: 0
- Plant response rating, Rice ([12]; 125 g ai/ha, scale 0 to 100): 0
- Morningglory plant response rating [13, 27]: 100
- Morningglory plant response rating [13, 28]: 60
- Crabgrass, Large plant response rating [14, 27]: 90
- Crabgrass, Large plant response rating [14, 28]: 40
- Wheat plant response rating (0 to 100 scale) [15, 25]: 0
- Wheat plant response rating [15, 26]: 50
- Foxtail, Giant plant response rating [16, 27]: 80
- Foxtail, Giant plant response rating [16, 28]: 70
- Wheat plant response rating [17, 27]: 60
- Wheat plant response rating [17, 28]: 20
- Barnyardgrass plant response rating ([18]; 125 g ai/ha, visual injury, 0 to 100 scale, approx. 10 days): 10
- Barnyardgrass plant response rating [18, 26]: 60
- Barnyardgrass plant response rating [19, 27]: 80
- Barnyardgrass plant response rating [19, 28]: 30
- Corn plant response rating (0 to 100 scale) [20, 25]: 0
- Corn plant response rating [20, 26]: 30
- Velvetleaf plant response rating (0 to 100 scale) [21, 25]: 20
- Velvetleaf plant response rating [21, 26]: 90
- Plant response rating, Barnyardgrass [22, 29]: 0
- Plant response rating, Barnyardgrass [22, 30]: 0
- Plant response rating, Barnyardgrass ([22]; 125 g ai/ha, scale 0 to 100): 0
- Morningglory plant response rating (0 to 100 scale) [23, 25]: 10
- Morningglory plant response rating [23, 26]: 100
- Corn plant response rating [24, 27]: 80
- Corn plant response rating [24, 28]: 40
